Several values for one entry are separate records, joined by “and”; a condition that tells them apart may be missing. Equal values may be shown once.
Columns and labels:
extracellular dopamine = assay: In vivo microdialysis of dopamine and DOPAC in striatum and prefrontal cortex; details: rats
Procedure: On the day of the experiment (24–48 h after surgery), the microdialysis probes of each animal were connected via the use of flexible PEEK tubing to a microperfusion pump (Harvard Apparatus, PHD 2000 Holliston, MA). Artificial CSF, composed of 147 mM NaCl, 3 mM KCl, 1.2 mM CaCl2, and 1.2 mM MgCl2 was used to perfuse the probes (1.5 μl/min) beginning at 75 min prior to drug treatment. Baseline dialysate collection was begun for all rats 60 min prior to drug administration (t=−60 min) such that a total of […] were collected prior to drug treatment (t=0). […] A control group of rats (N=9) received only the 0.5 % methylcellulose vehicle solution, delivered orally (p.o.). All drug solutions were delivered in a volume of 1 ml/kg of body weight. Every 20 min for the following 3 h, dialysate was collected from both brain regions of each rat. Dialysates were collected into mini-vials containing 7.5 μl of 0.02 M formic acid using an automated fraction collector Univentor 820, Malta. Tubes containing dialysate samples were then frozen at −80 °C until analyzed by HPLC for levels of dopamine and the dopamine metabolite, DOPAC. […] Coronal sections were prepared of each rat brain to verify the position of the dialysis collection probes. Dopamine and DOPAC concentrations were determined in each sample using HPLC separation and electrochemical detection. An aliquot (20 μl) of each dialysate sample was injected onto the HPLC column by means of a refrigerated microsampler system, consisting of a syringe pump (Gilson, model 402), a multi-column injector (Gilson, model 233 XL), and a temperature regulator (Gilson, model 832). The chromatographic separation was performed on a reverse-phase 150 ×2.1 mm (3 μm) C18 Thermo BDS Hypersil column (Keystone Scientific). […] The mobile phase was run at a flow rate of 0.35 ml/min using an HPLC pump (Shimadzu, model LC-10AD vp). Dopamine and DOPAC were electrochemically detected using a potentiostat (Antec Leyden, model Intro) fitted with a glassy carbon electrode set a +500 mV versus Ag/AgCl (Antec, Leyden). Data were analyzed using Chromatography Data System software (Shimadzu, Class-VP, Japan) using an external standard method to quantify concentrations of dopamine and DOPAC. […] Drug effects were expressed as percentages of basal level (mean±SEM) within the same subject. Statistical analysis was performed using Sigmastat for Windows (SPSS Corporation). Drug effects were compared with baseline and vehicle control using a two-way ANOVA for repeated measurements followed by the Newman–Keuls post hoc test. […] For all tests, the level of statistical significance was set at p<0.05.

[1] = system: D-AMPH-induced hyperactivity; assay: Inhibition of D-amphetamine-induced hyperactivity; assay type: in vivo; details: rats, p.o.; D-AMPH 1 mg/kg i.p.; distance traveled over 2 h
Procedure: Male Sprague–Dawley rats (200–250 g, N=4/treatment group) were habituated to Lucite locomotor activity chambers comprising an AccuScan activity monitoring system (AccuScan Instruments, Inc., Columbus, OH) were maintained in a quiet observation room kept under low light conditions. […] The rats were briefly removed from the activity chambers 60 min later to receive an injection of D-amphetamine hydrochloride (D-AMPH; 1 mg/kg in 1 ml/kg, i.p.). The animals were returned to the activity chambers, and locomotor activity was then recorded for 2 h using system software. Activity was quantitated as distance traveled (cm) over 2 h for each group. Inhibitory activity was calculated as the percent of total activity observed at each dose level of each drug versus animals receiving D-AMPH alone. An ID50 for inhibition of D-AMPH-induced hyperactivity was calculated for each compound.

Adrenergic, 1β = system: T1, Adrenergic, 1β; assay: NovaScreen broad selectivity panel at 100 nM, Adrenergic 1β; details: average of replicate tubes, read-out: % Inhibition of binding at 100 nM concentration, Adrenergic 1β
T1 construct: tissue NovaScreen/Caliper/Perkin-Elmer; host or cells: rat liver (inferred)

[2] = system: muscarinic cholinergic receptors; assay: Binding to muscarinic cholinergic receptors
Dopamine, D4 = target: T2, Dopamine, D4 (Homo sapiens, UniProt P21917); assay: NovaScreen broad selectivity panel at 100 nM, Dopamine D4; details: average of replicate tubes, read-out: % Inhibition of binding at 100 nM concentration, Dopamine D4
T2 sequence (P21917 1-419): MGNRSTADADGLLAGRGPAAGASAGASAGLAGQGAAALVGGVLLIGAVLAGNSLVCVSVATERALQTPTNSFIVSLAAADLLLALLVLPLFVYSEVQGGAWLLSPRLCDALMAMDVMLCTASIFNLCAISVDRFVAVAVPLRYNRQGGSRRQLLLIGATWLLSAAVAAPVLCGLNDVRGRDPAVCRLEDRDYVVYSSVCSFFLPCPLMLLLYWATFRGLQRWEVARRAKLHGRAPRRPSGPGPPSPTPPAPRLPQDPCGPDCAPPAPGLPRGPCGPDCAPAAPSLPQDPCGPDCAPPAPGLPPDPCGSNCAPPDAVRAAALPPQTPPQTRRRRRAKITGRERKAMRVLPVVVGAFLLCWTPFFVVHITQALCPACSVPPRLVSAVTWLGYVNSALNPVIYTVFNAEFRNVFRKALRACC
Procedure: Binding activity at a variety of receptor targets, including recombinant human serotonin receptors and rat dopamine D2 and human recombinant dopamine D4 receptors, was measured in vitro using standard radioligand displacement methods (NovaScreen/Caliper/Perkin-Elmer, Hanover, MD), to determine affinity. […] D2 receptor binding was measured at rat recombinant receptors expressed in Chinese hamster ovary (CHO) cells and using ^3H-methylspiperone as a radioligand and in rat striatum using ^3H-sulpiride as a radioligand. […] D4 receptor binding was measured at human recombinant receptor s expressed in CHO cells and using ^3 H-methylspiperone as a radioligand. D1 receptor binding at human recombinant receptor was measured in CHO cells using ^3H-SCH23390 as a radioligand. 5-HT2C receptor binding was measured in pig choroid plexus using ^3 H-methylsergide as a radioligand. Binding to alpha adrenergic receptors in the rat frontal cortex (alpha1A) or rat liver (alpha1B) was measured using ^3H-prazosin as a radioligand. Histamine H1 receptor binding was measured in bovine cere- bellum using ^3H-pyrilamine as a radioligand. […] The affinity constant (Ki) for each receptor subtype or inhibitory concentration 50 (IC50) for inhibition in functional assays was calculated.

T1 sequence (P15823 whole entry): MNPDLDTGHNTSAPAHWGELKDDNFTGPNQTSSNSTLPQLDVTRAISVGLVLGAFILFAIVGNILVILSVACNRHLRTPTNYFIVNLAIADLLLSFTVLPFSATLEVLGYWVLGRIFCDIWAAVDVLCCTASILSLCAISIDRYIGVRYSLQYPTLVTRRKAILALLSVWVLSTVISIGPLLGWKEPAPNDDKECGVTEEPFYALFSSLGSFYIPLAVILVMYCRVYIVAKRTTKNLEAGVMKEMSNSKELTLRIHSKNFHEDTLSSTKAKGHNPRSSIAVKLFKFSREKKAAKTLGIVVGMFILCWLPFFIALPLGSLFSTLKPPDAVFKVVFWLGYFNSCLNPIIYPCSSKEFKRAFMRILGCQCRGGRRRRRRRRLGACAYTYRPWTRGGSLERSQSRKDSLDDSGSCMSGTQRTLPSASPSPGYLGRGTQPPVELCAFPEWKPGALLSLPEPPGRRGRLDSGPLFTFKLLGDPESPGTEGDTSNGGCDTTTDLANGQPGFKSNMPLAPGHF

CN1CCN2c3c(cccc31)[C@@H]1CN(CCCC(=O)c3ccc(F)cc3)CC[C@@H]12 [ITI-007, 1-(4-fluoro-phenyl)-4-((6bR,10aS)-3-methyl-2,3,6b,9,10,10a-hexahydro-1H,7H-pyrido[3′,4′:4,5]pyrrolo[1,2,3-de]quinoxalin-8-yl)-butan-1-one]
DA efflux in mPFC (extracellular dopamine; 3 mg/kg p.o., p<0.05): significantly increased
DA efflux in mPFC (extracellular dopamine; 10 mg/kg p.o., trend toward an increase): not statistically significant
ID50, inhibition of D-AMPH-induced hyperactivity [1]: 0.95 mg/kg and ~ 1.0 mg/kg
inhibition at 0.1 µM (Adrenergic, 1β): 85.4%
Binding to muscarinic cholinergic receptors (e.g., M3 subclasses) [2]: no significant binding
inhibition at 0.1 µM (Dopamine, D4): 64.3%

From PMC4302236, “Functional profile of a novel modulator of serotonin, dopamine, and glutamate neurotransmission” (Psychopharmacology, 2014)
